This is an account of results in ChEMBL document CHEMBL4052625, “The evaluation of 1,4-benzoquinones as inhibitors of human monoamine oxidase” (Eur J Med Chem, 2017).

The structures appear in SMILES notation.

The target in assay [1] is T1, Amine oxidase [flavin-containing] A (Homo sapiens, UniProt P21397).
T1 sequence (P21397 whole entry): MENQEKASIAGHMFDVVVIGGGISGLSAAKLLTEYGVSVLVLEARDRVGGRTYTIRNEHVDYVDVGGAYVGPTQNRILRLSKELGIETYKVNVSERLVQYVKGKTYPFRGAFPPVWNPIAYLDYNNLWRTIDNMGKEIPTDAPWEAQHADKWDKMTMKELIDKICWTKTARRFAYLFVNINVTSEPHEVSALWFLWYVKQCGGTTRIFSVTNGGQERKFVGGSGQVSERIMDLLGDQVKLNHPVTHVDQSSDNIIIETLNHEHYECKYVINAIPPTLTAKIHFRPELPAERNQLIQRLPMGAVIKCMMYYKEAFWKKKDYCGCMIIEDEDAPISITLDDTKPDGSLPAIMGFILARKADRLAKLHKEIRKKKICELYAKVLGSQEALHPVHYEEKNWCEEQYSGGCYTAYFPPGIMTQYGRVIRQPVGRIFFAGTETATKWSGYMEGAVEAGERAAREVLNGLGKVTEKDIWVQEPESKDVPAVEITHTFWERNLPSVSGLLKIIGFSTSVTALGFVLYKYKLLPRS
In words: Competitive inhibition of human brain mitochondria MAO-A using kynuramine as substrate by Lineweaver-Burk analysis.

The target of assay [2] is T2, Amine oxidase [flavin-containing] B (Homo sapiens, UniProt P27338).
T2 sequence (P27338 whole entry): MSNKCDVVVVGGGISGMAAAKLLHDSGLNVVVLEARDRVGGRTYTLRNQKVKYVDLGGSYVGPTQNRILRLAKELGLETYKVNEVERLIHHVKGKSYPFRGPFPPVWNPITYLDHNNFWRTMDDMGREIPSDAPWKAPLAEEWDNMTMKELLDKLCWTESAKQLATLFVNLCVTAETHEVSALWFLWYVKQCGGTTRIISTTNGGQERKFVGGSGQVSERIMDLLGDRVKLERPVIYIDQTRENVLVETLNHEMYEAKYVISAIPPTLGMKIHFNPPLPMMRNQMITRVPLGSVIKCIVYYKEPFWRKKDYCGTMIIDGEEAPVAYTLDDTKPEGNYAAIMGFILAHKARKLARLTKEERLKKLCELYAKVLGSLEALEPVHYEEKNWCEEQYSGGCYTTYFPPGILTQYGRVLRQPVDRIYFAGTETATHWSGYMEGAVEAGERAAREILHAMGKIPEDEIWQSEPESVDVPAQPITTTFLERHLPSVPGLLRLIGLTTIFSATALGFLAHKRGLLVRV
The assay is described as follows: Non-competitive inhibition of human brain mitochondria MAO-B using kynuramine as substrate by Lineweaver-Burk analysis.

The target of assay [3] is T1, Amine oxidase [flavin-containing] A. In words: Inhibition of recombinant human MAO-A expressed in baculovirus infected BTI insect cell microsomes using kynuramine as substrate after 20 mins by fluorescence spectroscopy.
For assay [4], the target named is T2, Amine oxidase [flavin-containing] B. In words: Inhibition of recombinant human MAO-B expressed in baculovirus infected BTI insect cell microsomes using kynuramine as substrate after 20 mins by fluorescence spectroscopy.
Another assay is filed under the species Homo sapiens. In words: Selectivity index, ratio of IC50 for recombinant human MAO-B to IC50 for recombinant human MAO-A expressed in baculovirus infected BTI insect cell microsomes.
Assay [5] addresses T2, Amine oxidase [flavin-containing] B. The assay is described as follows: Inhibition of human liver mitochondria MAO-B using 1-methyl-4-phenyl-1,2,3,6-tetrahydropyridine as substrate after 15 mins by spectrophotometric analysis.
Assay [6] addresses T1, Amine oxidase [flavin-containing] A. In words: Inhibition of human gastrointestinal mitochondria MAO-A using 1-methyl-4-(1-methylpyrrol-2-yl)-1,2,3,6-tetrahydropyridine as substrate after 30 mins by spectrophotometric analysis.
The target is the same in assay [7]. In words: Irreversible inhibition of recombinant human MAO-A expressed in baculovirus infected BTI insect cell microsomes assessed as residual activity using kynuramine as substrate at 13 uM preincubated for 15 mins with subsequent dialysis for 24 hrs followed by substrate addition measured after 20 mins by fluorescence spectroscopy relative to negative control. Conditions: read-out: INH.

In general, Ki refers to a measure of affinity in units of concentration, obtained from inhibition or displacement. Lower therefore signals a stronger hold on the target. In general, IC50 refers to the concentration at which inhibition is half-maximal.

Regarding `O=C1C=CC(=O)C=C1` [BENZOQUINONE], the Ki in assay [1] stood at 9.62 µM; in assay [2], 20.3 µM. For the same compound, the IC50 in assay [3] was 4.82 µM; in assay [4], 10.2 µM. In the assay listed under Homo sapiens, the Ratio IC50 came to 2.1.

With `O=C1C=CC(=O)C(c2ccccc2)=C1`, the IC50 in assay [3] worked out at 5.03 µM; in assay [4] it was 7.87 µM. For the same compound, the Ratio IC50 in the assay listed under Homo sapiens was 1.6.

Regarding `CC1=C(C)C(=O)c2cc(C)ccc2C1=O`, the Ki in assay [5] was determined as 6 µM; in assay [6] it was 3 µM.

With `C#CCN(C)Cc1ccccc1` [PARGYLINE], in assay [7], the activity at 13 µM lay within 0.1 to 1.6%.

Turning to `O=C1C=CC(=O)C(OCc2ccccc2)=C1`, the IC50 turned out to be 13.2 µM in assay [3] and 3.69 µM in assay [4]. Also, the Ratio IC50 in the assay filed under Homo sapiens was found to be 0.3.

For the compound `O=C1C=CC(=O)C(Cc2ccccc2)=C1`, the concentration for half-maximal inhibition (IC50) in assay [3] came out at 5.37 µM; in assay [4], 23.2 µM. Further, in the assay listed under Homo sapiens, the Ratio IC50 was 4.3.

Consider `O=C1C=CC(=O)C(C2CCCC2)=C1`, for which the figures for the half-maximal inhibitory concentration (IC50) in assay [3] and in assay [4] were 5.84 µM and 17.8 µM, respectively. The Ratio IC50 in the assay filed under Homo sapiens is 3.
